Test results taken from US12187742B2 (XRAD Therapeutics, Inc., priority 2018, dated 2025).
Counter-ions that a name gives are not always drawn.

Molecular target: ATM (Homo sapiens (Human), UniProt Q13315)
Assay: ATM in Cell Western Assay (pKAP1 in etoposide-treated MCF-7 cells)
Assay type: cell-based
Conditions: MCF-7 cells, etoposide 100 μM, 1 hr, pKAP1 readout
Description: Assay of Compounds ATM and DNA-PK Inhibition
ATM in Cell Western Assay:
Next day, add corresponding concentration of compounds using pin tool (Echo 550), the final top concentration is 1 μM, 3-fold series dilution, total 10 doses. Then add etoposide (Sigma, #E1383) to a final concentration of 100 μM. Incubate at 37° C. for 1 hr. Fix cells by adding 25 μL of fixing solution (8% paraformaldehyde) for 20 minutes at ambient temperature. Permeabilize cells for 5 washes with 1×PBS (phosphate buffered saline) containing 0.1% Triton X-100; each wash is for 5 minutes. […] The next day, wash the plate 5 times with 1×PBST (1×PBS containing 0.1% Tween-20). […] Wash the cells for 5 times with 1×PBST (1×PBS containing 0.1% Tween-20) at ambient temperature, using gentle shaking in the dark. After the last wash
remove wash solution, turn plate upside down onto a thin paper towel and centrifuge at 1000 rpm for 1 min to absorb all wash buffer. Clean the bottom of plate with moist lint free paper. Scan plate immediately using ODYSSEY CLx (LI-COR) for the best results.

Sequence of ATM (Q13315 whole entry): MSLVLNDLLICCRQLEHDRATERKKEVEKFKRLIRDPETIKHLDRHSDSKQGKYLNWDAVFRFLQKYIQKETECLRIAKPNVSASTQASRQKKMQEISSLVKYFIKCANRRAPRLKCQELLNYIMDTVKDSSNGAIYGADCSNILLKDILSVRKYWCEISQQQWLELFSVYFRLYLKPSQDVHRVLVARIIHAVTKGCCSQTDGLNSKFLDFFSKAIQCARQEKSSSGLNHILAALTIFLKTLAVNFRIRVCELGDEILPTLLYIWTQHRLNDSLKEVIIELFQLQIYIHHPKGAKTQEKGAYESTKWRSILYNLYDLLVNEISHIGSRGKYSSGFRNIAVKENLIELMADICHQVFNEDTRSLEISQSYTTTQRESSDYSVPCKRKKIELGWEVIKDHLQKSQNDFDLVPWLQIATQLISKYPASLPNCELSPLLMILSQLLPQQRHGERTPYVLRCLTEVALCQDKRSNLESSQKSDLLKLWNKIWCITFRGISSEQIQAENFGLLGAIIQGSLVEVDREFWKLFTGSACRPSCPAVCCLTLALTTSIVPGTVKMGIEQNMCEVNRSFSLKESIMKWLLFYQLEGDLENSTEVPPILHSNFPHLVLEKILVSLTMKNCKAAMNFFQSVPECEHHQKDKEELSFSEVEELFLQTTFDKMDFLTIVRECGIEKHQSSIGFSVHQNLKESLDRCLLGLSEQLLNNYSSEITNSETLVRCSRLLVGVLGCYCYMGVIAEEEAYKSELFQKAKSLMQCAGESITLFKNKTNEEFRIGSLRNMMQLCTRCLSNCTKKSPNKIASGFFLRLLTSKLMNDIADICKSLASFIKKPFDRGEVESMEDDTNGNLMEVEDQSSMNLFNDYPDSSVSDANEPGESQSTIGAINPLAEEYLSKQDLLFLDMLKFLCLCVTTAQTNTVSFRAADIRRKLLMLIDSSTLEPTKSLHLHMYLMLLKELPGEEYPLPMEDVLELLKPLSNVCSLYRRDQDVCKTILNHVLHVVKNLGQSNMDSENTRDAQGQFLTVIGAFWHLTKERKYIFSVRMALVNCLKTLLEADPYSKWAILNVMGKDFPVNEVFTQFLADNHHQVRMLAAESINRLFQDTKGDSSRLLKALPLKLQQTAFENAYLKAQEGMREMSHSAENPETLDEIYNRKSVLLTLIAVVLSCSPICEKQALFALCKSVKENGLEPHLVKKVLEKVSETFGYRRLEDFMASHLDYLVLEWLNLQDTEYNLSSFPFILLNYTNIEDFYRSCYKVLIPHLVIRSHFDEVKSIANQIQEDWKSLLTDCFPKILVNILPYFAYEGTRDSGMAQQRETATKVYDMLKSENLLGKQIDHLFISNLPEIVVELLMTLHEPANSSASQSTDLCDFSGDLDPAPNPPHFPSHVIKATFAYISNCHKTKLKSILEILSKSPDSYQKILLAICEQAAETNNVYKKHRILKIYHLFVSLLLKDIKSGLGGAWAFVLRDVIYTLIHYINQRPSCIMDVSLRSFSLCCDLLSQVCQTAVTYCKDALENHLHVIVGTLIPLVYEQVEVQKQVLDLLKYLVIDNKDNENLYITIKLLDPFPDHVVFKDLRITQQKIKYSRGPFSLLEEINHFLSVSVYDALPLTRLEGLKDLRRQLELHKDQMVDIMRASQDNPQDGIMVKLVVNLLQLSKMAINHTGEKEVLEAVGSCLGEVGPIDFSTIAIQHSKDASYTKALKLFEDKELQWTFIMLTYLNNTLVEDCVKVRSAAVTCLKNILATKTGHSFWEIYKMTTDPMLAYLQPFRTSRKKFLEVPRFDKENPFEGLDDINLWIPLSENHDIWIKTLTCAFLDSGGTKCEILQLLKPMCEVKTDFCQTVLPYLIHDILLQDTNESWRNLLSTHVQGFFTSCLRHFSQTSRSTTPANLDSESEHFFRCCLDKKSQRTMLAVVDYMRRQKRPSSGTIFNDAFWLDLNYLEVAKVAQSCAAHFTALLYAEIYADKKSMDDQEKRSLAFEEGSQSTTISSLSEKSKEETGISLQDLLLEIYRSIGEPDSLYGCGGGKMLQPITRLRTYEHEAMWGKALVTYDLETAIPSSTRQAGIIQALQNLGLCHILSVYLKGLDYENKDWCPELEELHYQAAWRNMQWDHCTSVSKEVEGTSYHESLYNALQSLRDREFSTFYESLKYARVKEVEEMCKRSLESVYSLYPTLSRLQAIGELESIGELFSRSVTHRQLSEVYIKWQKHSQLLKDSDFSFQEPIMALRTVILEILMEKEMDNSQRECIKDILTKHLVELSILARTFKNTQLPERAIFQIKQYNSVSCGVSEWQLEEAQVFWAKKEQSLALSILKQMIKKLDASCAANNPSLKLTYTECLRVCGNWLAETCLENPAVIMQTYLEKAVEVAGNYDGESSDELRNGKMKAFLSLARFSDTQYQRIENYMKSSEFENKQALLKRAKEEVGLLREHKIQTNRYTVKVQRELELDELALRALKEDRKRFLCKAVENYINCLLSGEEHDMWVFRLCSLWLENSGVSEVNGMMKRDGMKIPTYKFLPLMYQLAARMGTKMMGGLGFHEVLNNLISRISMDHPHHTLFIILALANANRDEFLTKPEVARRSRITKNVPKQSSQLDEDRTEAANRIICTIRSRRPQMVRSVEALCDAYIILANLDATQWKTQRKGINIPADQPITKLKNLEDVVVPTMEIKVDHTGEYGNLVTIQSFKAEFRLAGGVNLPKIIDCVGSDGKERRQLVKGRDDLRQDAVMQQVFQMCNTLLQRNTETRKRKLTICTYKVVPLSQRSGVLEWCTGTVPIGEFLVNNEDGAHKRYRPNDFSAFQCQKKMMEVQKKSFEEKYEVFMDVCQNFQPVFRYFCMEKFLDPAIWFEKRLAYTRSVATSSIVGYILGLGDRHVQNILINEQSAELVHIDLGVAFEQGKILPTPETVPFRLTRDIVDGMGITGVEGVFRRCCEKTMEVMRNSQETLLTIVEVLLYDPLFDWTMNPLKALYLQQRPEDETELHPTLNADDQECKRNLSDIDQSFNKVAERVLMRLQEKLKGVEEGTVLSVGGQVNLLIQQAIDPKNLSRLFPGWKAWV

SMILES	IC50 [nM]
CN(C)CCOCc1ncc(-c2ccc3ncc4c(c3c2)C2(CCC2)C(=O)N4C)cc1NS(C)(=O)=O [Example 265, N-(2-((2-(Dimethylamino)ethoxy)methyl)-5-(3′-methyl-2′-oxo-2′,3′-dihydrospiro [cyclobutane-1,1′-pyrrolo[2,3-c]quinolin]-8′-yl)pyridin-3-yl)methanesulfonamide]	> 100
Cc1ccc(S(=O)(=O)Nc2cc(-c3ccc4ncc5c(c4c3)C3(CCC3)C(=O)N5C)cnc2OCCCN2CCC(F)(F)CC2)cc1 [Example 152, hydrochloride]	1 to 100
Cc1oncc1S(=O)(=O)Nc1cc(-c2ccc3ncc4c(c3c2)C2(CC2)C(=O)N4C)cnc1OCCCN(C)C [Example 99, N-(2-(3-(Dimethylamino)propoxy)-5-(3′-methyl-2′-oxo-2′,3′-dihydrospiro [cyclopropane-1,1′-pyrrolo[2,3-c]quinolin]-8′-yl)pyridin-3-yl)-5-methylisoxazole-4-sulfonamide]	> 100
CN1C(=O)C2(CC2)c2c1cnc1ccc(-c3cncc(C(C)(C)O)c3)cc21 [Example 25, 8′-(5-(2-Hydroxypropan-2-yl)pyridin-3-yl)-3 methylspiro[cyclopropane-1,1′-pyrrolo[2,3-c]quinolin]-2′(3′-H)-one]	> 100
CN(C)CCCOc1ncc(-c2ccc3ncc4c(c3c2)C2(CCC2)C(=O)N4C)cc1NS(=O)(=O)c1cncc(C#N)c1 [Example 174, 5-Cyano-N-(2-(3-(dimethylamino)propoxy)-5-(3′-methyl-2′-oxo-2′,3′-dihydrospiro[cyclobulane-1,1′-pyrrolo[2,3-c]quinolin]-8′-yl)pyridin-3-yl)pyridine-3-sulfonamide hydrochloride]	1 to 100
COc1ncc(-c2ccc3ncc4c(c3c2)C2(CC2)C(=O)N4CCC#N)cc1NS(=O)(=O)c1ccccc1 [Example 27, N-(5-(3′-(2-Cyanoethyl)-2′-oxo-2′,3′-dihydrospiro[cyclopropane-1,1′-pyrrolo[2,3-c]quinolin]-8′-yl)-2-methoxypyridin-3-yl)benzenesulfonamide]	> 100
CC(C)NC1CN(c2ncc(-c3cc4c5c(cnc4cc3F)N(C)C(=O)C53CCC3)cc2NS(C)(=O)=O)C1 [Example 328, N-(5-(7′-Fluoro-3′-methyl-2′-oxo-2′,3′-dihydrospiro[cyclobutane-1,1′-pyrrolo[2,3-c]quinolin]-8′-yl)-2-(3-(isopropylamino)azetidin-1-yl)pyridin-3-yl)methanesulfonamide hydrochloride]	1 to 100
CN1C(=O)C2(CCC2)c2c1cnc1ccc(-c3cnc(OCCCN4CC(F)(F)C4)c(NS(C)(=O)=O)c3)cc21 [Example 307, N-(2-(3-(3,3-Difluoroazetidin-1-yl)propoxy)-5-(3′-methyl-2′-oxo-2′,3′-dihydrospiro[cyclobutane-1,1′-pyrrolo[2,3-c]quinolin]-8′-yl)pyridin-3-yl) methanesulfonamide formate]	> 100
CN1C(=O)C2(CCC2)c2c1cnc1ccc(-c3cnc(OCC(CO)N4CCCCC4)c(NS(C)(=O)=O)c3)cc21 (stereo not shown) [Example 284, N-(2-(3-Hydroxy-2-(piperidin-1-yl)propoxy)-5-(3′-methyl-2′-oxo-2′,3′-dihydrospiro[cyclobutane-1,1′-pyrrolo[2,3-c]quinolin]-8′-yl)pyridin-3-yl)methanesulfonamide]	> 100

Same assay, conditions: pKAP1 in etoposide-treated MCF-7 cells

SMILES	IC50 [nM]
CN1C(=O)C2(CCC2)c2c1cnc1ccc(-c3cnc(N4CC5(CN(C(=O)OC(C)(C)C)C5)C4)c(NS(C)(=O)=O)c3)cc21 [Example 347, tert-Butyl 6-(5-(3′-methyl-2′-oxo-2′,3′-dihydrospiro [cyclobutane-1,1′-pyrrolo[2,3-c]quinolin]-8′-yl)-3-(methylsulfonamido)pyridin-2-yl)-2,6-diazaspiro[3.3] heptane-2-carboxylate]	> 100
CC(=O)N1CC2(C1)C(=O)N(C)c1cnc3cc(F)c(-c4cnc(OCCNC(C)C)c(NS(C)(=O)=O)c4)cc3c12 [Example 511, N-(5-(1-Acetyl-7′-fluoro-3′-methyl-2′-oxo-2′,3′-dihydrospiro[azetidine-3,1′-pyrrolo[2,3-c]quinolin]-8′-yl)-2-(2-(isopropylamino)ethoxy)pyridin-3-yl)methanesulfonamide]	> 100
CC(C)NCCOc1ncc(-c2cc3c4c(cnc3cc2F)N(C)C(=O)C42CN([C@H]3CC[C@H](O)CC3)C2)cc1NS(C)(=O)=O [Example 505, N-(5-(7′-Fluoro-1-(trans-4-hydroxycyclohexyl)-3′-methyl-2′-oxo-2′,3′-dihydrospiro[azetidine-3,1′-pyrrolo[2,3-c]quinolin]-8′-yl)-2-(2-(isopropylamino)ethoxy)pyridin-3-yl)methanesulfonamide]	> 100
CC(C)NCCOc1ncc(-c2cc3c4c(cnc3cc2F)N(C)C(=O)C42CC(F)C2)cc1NS(C)(=O)=O (stereo not drawn) [Example 560, cis-N-(5-(3,7′-Difluoro-3′-methyl-2′-oxo-2′,3′-dihydrospiro[cyclobutane-1,1′-pyrrolo[2,3-c]quinolin]-8′-yl)-2-(2-(isopropylamino)ethoxy)pyridin-3-yl)methanesulfonamide]	1 to 100
CC(C)NCCOc1ncc(-c2cc3c4c(cnc3cc2F)N(C)C(=O)C42CN(S(=O)(=O)c3ccccc3)C2)cc1NS(C)(=O)=O [Example 515]	> 100
CN1C(=O)C2(CCC2)c2c1cnc1ccc(-c3cnc(N4CCC(C)(N5CCCCC5)C4)c(NS(C)(=O)=O)c3)cc21 (racemic) [Example 353, (rac)-N-(5-(3′-Methyl-2′-oxo-2′,3′-dihydrospiro[cyclobutane-1,1′-pyrrolo[2,3-c]quinolin]-8′-yl)-2-(3-methyl-3-(piperidin-1-yl)pyrrolidin-1-yl)pyridin-3-yl)methanesulfonamide hydrochloride]	> 100
CC(C)NCCOc1ncc(-c2cc3c4c(cnc3cc2F)N(C)C(=O)C42CN(c3ncccn3)C2)cc1NS(C)(=O)=O [Example 551, N-(5-(7′-Fluoro-3′-methyl-2′-oxo-1-(pyrimidin-2-yl)-2′,3′-dihydrospiro[azetidine-3,1′-pyrrolo[2,3-c]quinolin]-8′-y))-2-(2-(isopropylamino)ethoxy)pyridin-3-yl)methanesulfonamide hydrochloride]	> 100
CC(C)NCCOc1ncc(-c2cc3c(cc2F)ncc2c3[C@]3(C[C@@H](c4cccc(=O)[nH]4)C3)C(=O)N2C)cc1NS(C)(=O)=O [Example 441, trans-N-(5-(7′-Fluoro-3′-methyl-2′-oxo-3-(6-oxo-1,6-dihydropyridin-2-yl)-2′,3′-dihydrospiro[cyclobutane-1,1′-pyrrolo[2,3-c]quinolin]-8′-yl)-2-(2-(isopropylamino)ethoxy)pyridin-3-yl)methanesulfonamide]	> 100
CC(C)NCCOc1ncc(-c2cc3c4c(cnc3cc2F)N(C)C(=O)C42CN(C[C@H](O)CO)C2)cc1NS(C)(=O)=O [Example 510, (S)-N-(5-(1-(2,3-Dihydroxypropyl)-7′-fluoro-3′-methyl-2′-oxo-2′,3′-dihydrospiro[azetidine-3,1′-pyrrolo[2,3-c]quinolin]-8′-yl)-2-(2-(isopropylamino)ethoxy)pyridin-3-yl)methanesulfonamide]	> 100
CC(C)NCCOc1ncc(-c2cc3c4c(cnc3cc2F)N(C)C(=O)C42CN(C3CC3)C2)cc1NS(C)(=O)=O [Example 496, N-(5-(1-Cyclopropyl-7′-fluoro-3′-methyl-2′-oxo-2′,3′-dihydrospiro[azetidine-3,1′-pyrrolo[2,3-c]quinolin]-8′-yl)-2-(2-(isopropylamino)ethoxy)pyridin-3-yl)methanesulfonamide]	1 to 100
